Experimental data from the NIST ThermoML archive (doi:10.1016/j.jct.2016.09.026).
Numbers after ± are expanded uncertainties.

Tests used:
[1] = Crystal
[2] = Molar enthalpy of transition or fusion; conditions: Crystal; DSC
[3] = molar heat capacity at constant pressure; conditions: 101.33 kPa, Crystal, Small sample (50 mg) DSC

CCCCC(=O)c1ccc(O)cc1 [1-(4-hydroxyphenyl)-1-pentanone]
mass density ([1]; 298 K, 101.33 kPa, X-ray diffraction): 1204.5 ± 8 kg/m3 | Normal melting temperature ([1]; DTA): 61.1 ± 0.8 °C | Molar enthalpy of transition or fusion [2]: 6.15 ± 0.141 kcal/mol | molar heat capacity at constant pressure ([3]; 288.67 K): 235 ± 7.5 J/K/mol | molar heat capacity at constant pressure ([3]; 288.92 K): 235.9 ± 7.3 J/K/mol | molar heat capacity at constant pressure ([3]; 289.17 K): 235.2 ± 6.7 J/K/mol | molar heat capacity at constant pressure ([3]; 289.42 K): 236.4 ± 6.7 J/K/mol | molar heat capacity at constant pressure ([3]; 289.67 K): 236 ± 7.7 J/K/mol | molar heat capacity at constant pressure ([3]; 289.92 K): 235.3 ± 7.5 J/K/mol | molar heat capacity at constant pressure ([3]; 290.17 K): 236.5 ± 7.5 J/K/mol | molar heat capacity at constant pressure ([3]; 290.42 K): 236.3 ± 7.5 J/K/mol | molar heat capacity at constant pressure ([3]; 290.68 K): 238 ± 8.1 J/K/mol | molar heat capacity at constant pressure ([3]; 290.93 K): 236.4 ± 7.1 J/K/mol | molar heat capacity at constant pressure ([3]; 291.18 K): 236.8 ± 7.7 J/K/mol | molar heat capacity at constant pressure ([3]; 291.43 K): 238 ± 8.1 J/K/mol | molar heat capacity at constant pressure ([3]; 291.68 K): 237.8 ± 8.1 J/K/mol | molar heat capacity at constant pressure ([3]; 291.93 K): 236.7 ± 7.7 J/K/mol | molar heat capacity at constant pressure ([3]; 292.18 K): 237.4 ± 7.5 J/K/mol | molar heat capacity at constant pressure ([3]; 292.43 K): 238.5 ± 7.7 J/K/mol | molar heat capacity at constant pressure ([3]; 292.68 K): 239 ± 8.8 J/K/mol | molar heat capacity at constant pressure ([3]; 292.93 K): 239.6 ± 7.5 J/K/mol | molar heat capacity at constant pressure ([3]; 293.18 K): 239.6 ± 7.7 J/K/mol | molar heat capacity at constant pressure ([3]; 293.43 K): 240 ± 7.7 J/K/mol | molar heat capacity at constant pressure ([3]; 293.68 K): 240.4 ± 8.8 J/K/mol | molar heat capacity at constant pressure ([3]; 293.93 K): 239.8 ± 8.3 J/K/mol | molar heat capacity at constant pressure ([3]; 294.18 K): 239.1 ± 7.7 J/K/mol | molar heat capacity at constant pressure ([3]; 294.44 K): 239.1 ± 8.3 J/K/mol | molar heat capacity at constant pressure ([3]; 294.69 K): 240.8 ± 8.3 J/K/mol | molar heat capacity at constant pressure ([3]; 294.94 K): 240.4 ± 8.3 J/K/mol | molar heat capacity at constant pressure ([3]; 295.19 K): 239.8 ± 7.7 J/K/mol | molar heat capacity at constant pressure ([3]; 295.44 K): 240.5 ± 7.1 J/K/mol | molar heat capacity at constant pressure ([3]; 295.69 K): 241.6 ± 7.5 J/K/mol | molar heat capacity at constant pressure ([3]; 295.94 K): 241.1 ± 7.5 J/K/mol | molar heat capacity at constant pressure ([3]; 296.19 K): 240.8 ± 7.9 J/K/mol | molar heat capacity at constant pressure ([3]; 296.44 K): 242.1 ± 8.1 J/K/mol | molar heat capacity at constant pressure ([3]; 296.69 K): 241.7 ± 7.7 J/K/mol | molar heat capacity at constant pressure ([3]; 296.94 K): 241.2 ± 8.6 J/K/mol | molar heat capacity at constant pressure ([3]; 297.19 K): 241.5 ± 8.3 J/K/mol | molar heat capacity at constant pressure ([3]; 297.44 K): 242.2 ± 8.6 J/K/mol | molar heat capacity at constant pressure ([3]; 297.69 K): 241.6 ± 7.7 J/K/mol | molar heat capacity at constant pressure ([3]; 297.94 K): 242.5 ± 8.1 J/K/mol | molar heat capacity at constant pressure ([3]; 298.19 K): 242.7 ± 8.3 J/K/mol | molar heat capacity at constant pressure ([3]; 298.44 K): 242.8 ± 7.7 J/K/mol | molar heat capacity at constant pressure ([3]; 298.69 K): 241.8 ± 7.9 J/K/mol | molar heat capacity at constant pressure ([3]; 298.94 K): 242.3 ± 7.5 J/K/mol | molar heat capacity at constant pressure ([3]; 299.19 K): 242.3 ± 6.9 J/K/mol | molar heat capacity at constant pressure ([3]; 299.44 K): 242.2 ± 8.1 J/K/mol | molar heat capacity at constant pressure ([3]; 299.69 K): 242.9 ± 8.6 J/K/mol | molar heat capacity at constant pressure ([3]; 299.94 K): 244.1 ± 8.8 J/K/mol | molar heat capacity at constant pressure ([3]; 300.19 K): 244.9 ± 8.6 J/K/mol | molar heat capacity at constant pressure ([3]; 300.44 K): 244.3 ± 8.4 J/K/mol | molar heat capacity at constant pressure ([3]; 300.69 K): 244.4 ± 8.1 J/K/mol | molar heat capacity at constant pressure ([3]; 300.94 K): 244.7 ± 8.8 J/K/mol | molar heat capacity at constant pressure ([3]; 301.19 K): 244.5 ± 8.4 J/K/mol | molar heat capacity at constant pressure ([3]; 301.44 K): 243.4 ± 8.4 J/K/mol | molar heat capacity at constant pressure ([3]; 301.69 K): 244.2 ± 8.1 J/K/mol | molar heat capacity at constant pressure ([3]; 301.94 K): 244.9 ± 8.2 J/K/mol | molar heat capacity at constant pressure ([3]; 302.19 K): 245.3 ± 8.4 J/K/mol | molar heat capacity at constant pressure ([3]; 302.44 K): 245.1 ± 8.6 J/K/mol | molar heat capacity at constant pressure ([3]; 302.69 K): 244.8 ± 8.6 J/K/mol | molar heat capacity at constant pressure ([3]; 302.94 K): 245.6 ± 8.8 J/K/mol | molar heat capacity at constant pressure ([3]; 303.19 K): 246.4 ± 9 J/K/mol | molar heat capacity at constant pressure ([3]; 303.44 K): 246.5 ± 8.2 J/K/mol | molar heat capacity at constant pressure ([3]; 303.69 K): 247 ± 8.2 J/K/mol | molar heat capacity at constant pressure ([3]; 303.94 K): 247.4 ± 8.8 J/K/mol | molar heat capacity at constant pressure ([3]; 304.19 K): 247.3 ± 9.2 J/K/mol | molar heat capacity at constant pressure ([3]; 304.44 K): 247.5 ± 9 J/K/mol | molar heat capacity at constant pressure ([3]; 304.69 K): 246.8 ± 8.8 J/K/mol | molar heat capacity at constant pressure ([3]; 304.94 K): 246.8 ± 9 J/K/mol | molar heat capacity at constant pressure ([3]; 305.19 K): 247.1 ± 9.6 J/K/mol | molar heat capacity at constant pressure ([3]; 305.44 K): 248.1 ± 9.9 J/K/mol | molar heat capacity at constant pressure ([3]; 305.69 K): 247.8 ± 9.4 J/K/mol | molar heat capacity at constant pressure ([3]; 305.94 K): 247.5 ± 9.2 J/K/mol | molar heat capacity at constant pressure ([3]; 306.19 K): 247.7 ± 9.7 J/K/mol | molar heat capacity at constant pressure ([3]; 306.44 K): 248.9 ± 9.7 J/K/mol | molar heat capacity at constant pressure ([3]; 306.69 K): 248.8 ± 10 J/K/mol | molar heat capacity at constant pressure ([3]; 306.94 K): 249.6 ± 10 J/K/mol | molar heat capacity at constant pressure ([3]; 307.19 K): 250.4 ± 9.7 J/K/mol | molar heat capacity at constant pressure ([3]; 307.44 K): 250.1 ± 9.7 J/K/mol | molar heat capacity at constant pressure ([3]; 307.69 K): 250.1 ± 9.4 J/K/mol | molar heat capacity at constant pressure ([3]; 307.94 K): 249.4 ± 9.7 J/K/mol | molar heat capacity at constant pressure ([3]; 308.19 K): 249.7 ± 9.4 J/K/mol | molar heat capacity at constant pressure ([3]; 308.44 K): 250.1 ± 9.9 J/K/mol | molar heat capacity at constant pressure ([3]; 308.69 K): 249.7 ± 9.4 J/K/mol | molar heat capacity at constant pressure ([3]; 308.94 K): 250.3 ± 9.9 J/K/mol | molar heat capacity at constant pressure ([3]; 309.19 K): 250.8 ± 9.9 J/K/mol | molar heat capacity at constant pressure ([3]; 309.44 K): 251.7 ± 10 J/K/mol | molar heat capacity at constant pressure ([3]; 309.69 K): 252.9 ± 11 J/K/mol | molar heat capacity at constant pressure ([3]; 309.94 K): 251.9 ± 9.9 J/K/mol | molar heat capacity at constant pressure ([3]; 310.19 K): 253.2 ± 10 J/K/mol | molar heat capacity at constant pressure ([3]; 310.44 K): 253.8 ± 9.7 J/K/mol | molar heat capacity at constant pressure ([3]; 310.69 K): 253.1 ± 9 J/K/mol | molar heat capacity at constant pressure ([3]; 310.94 K): 253.2 ± 8.8 J/K/mol | molar heat capacity at constant pressure ([3]; 311.19 K): 252.6 ± 9.7 J/K/mol | molar heat capacity at constant pressure ([3]; 311.44 K): 252.4 ± 9.9 J/K/mol | molar heat capacity at constant pressure ([3]; 311.69 K): 253.1 ± 10 J/K/mol | molar heat capacity at constant pressure ([3]; 311.94 K): 252.2 ± 9.5 J/K/mol | molar heat capacity at constant pressure ([3]; 312.19 K): 252.8 ± 9 J/K/mol | molar heat capacity at constant pressure ([3]; 312.44 K): 252.4 ± 9.9 J/K/mol | molar heat capacity at constant pressure ([3]; 312.69 K): 253.6 ± 9.3 J/K/mol | molar heat capacity at constant pressure ([3]; 312.94 K): 254 ± 10 J/K/mol | molar heat capacity at constant pressure ([3]; 313.19 K): 253.3 ± 9.3 J/K/mol | molar heat capacity at constant pressure ([3]; 313.44 K): 254.6 ± 9.7 J/K/mol | molar heat capacity at constant pressure ([3]; 313.69 K): 255.2 ± 10 J/K/mol | molar heat capacity at constant pressure ([3]; 313.94 K): 255 ± 10 J/K/mol | molar heat capacity at constant pressure ([3]; 314.19 K): 255.4 ± 10 J/K/mol | molar heat capacity at constant pressure ([3]; 314.44 K): 256.5 ± 11 J/K/mol | molar heat capacity at constant pressure ([3]; 314.69 K): 256.9 ± 10 J/K/mol | molar heat capacity at constant pressure ([3]; 314.94 K): 256.1 ± 11 J/K/mol | molar heat capacity at constant pressure ([3]; 315.19 K): 256 ± 10 J/K/mol | molar heat capacity at constant pressure ([3]; 315.44 K): 255.8 ± 9.5 J/K/mol | molar heat capacity at constant pressure ([3]; 315.69 K): 255.8 ± 9.9 J/K/mol | molar heat capacity at constant pressure ([3]; 315.94 K): 256 ± 11 J/K/mol | molar heat capacity at constant pressure ([3]; 316.19 K): 256.4 ± 11 J/K/mol | molar heat capacity at constant pressure ([3]; 316.44 K): 256.4 ± 11 J/K/mol
